We go through one molecule from the NIST ThermoML archive (doi:10.1021/acs.jced.6b00929).

± gives the expanded uncertainty stated by the source.

The conditions of data set [1]: Crystal; DTA.
A short description of data set [2]: Molar enthalpy of transition or fusion. To be noted: Crystal; DSC.

For `CC(=O)Oc1ccc(C2CC(=O)c3c(OC(C)=O)cc(OC(C)=O)cc3O2)cc1` (configuration not stated) [4',5,7-triacetoxyflavanone], the Normal melting temperature in data set [1] came out at 73.80 ± 0.46 °C. For the same molecule, the “Molar enthalpy of transition or fusion” value in data set [2] turned out to be 4.97 ± 0.263 kcal/mol.
